Experimental data: US20070265208A1, “Association of calpain inhibitors and reactive oxygen species trapping agents” (priority 2000, published 2007)
Where “and” joins values, the source holds several entries; their conditions need not be identical. Identical values can stand only once. Non-standard residues stand in square brackets, D forms with d. Residues, ends and D or L forms follow the SMILES beside them. ξ: configuration not given here. *: point of attachment. ξF = NC(Cc1ccccc1)C(=O)O; Cbz = O=C(OCc1ccccc1)*

Legend:
[1] = molecular target: T1, human calpain I (Homo sapiens, UniProt P07384); assay: Effects on human calpain I (acellular, Suc-Leu-Tyr-AMC fluorescence); type: biochemical; settings: enzyme purified from human erythrocytes; 1 h at 25°C; read-out: Inhibition human calpain I, acellular [IC50 (nM)]
T1 construct: enzyme purified from human erythrocytes; purchased Calbiochem 208713; host or cells: human erythrocytes (native tissue source)
T1 sequence (P07384 1-714): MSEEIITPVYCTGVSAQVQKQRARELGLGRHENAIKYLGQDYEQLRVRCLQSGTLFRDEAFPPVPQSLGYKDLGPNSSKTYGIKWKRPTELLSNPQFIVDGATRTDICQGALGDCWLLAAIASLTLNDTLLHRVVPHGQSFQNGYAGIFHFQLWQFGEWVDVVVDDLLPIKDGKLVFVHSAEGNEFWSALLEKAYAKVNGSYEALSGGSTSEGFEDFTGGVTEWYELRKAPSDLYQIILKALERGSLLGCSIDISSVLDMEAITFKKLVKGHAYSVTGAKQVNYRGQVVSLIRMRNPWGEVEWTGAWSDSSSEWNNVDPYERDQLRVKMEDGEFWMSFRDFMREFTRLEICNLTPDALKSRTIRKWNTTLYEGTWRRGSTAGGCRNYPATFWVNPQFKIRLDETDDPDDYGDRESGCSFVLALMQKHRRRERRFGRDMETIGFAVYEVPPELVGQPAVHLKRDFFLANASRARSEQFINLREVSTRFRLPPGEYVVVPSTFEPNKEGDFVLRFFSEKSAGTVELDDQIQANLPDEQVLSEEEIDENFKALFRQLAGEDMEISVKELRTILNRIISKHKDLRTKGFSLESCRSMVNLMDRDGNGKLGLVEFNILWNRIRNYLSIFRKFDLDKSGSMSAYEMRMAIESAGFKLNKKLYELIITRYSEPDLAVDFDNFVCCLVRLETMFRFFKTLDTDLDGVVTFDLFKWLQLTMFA
T1 sequence (P04632 1-268 partner): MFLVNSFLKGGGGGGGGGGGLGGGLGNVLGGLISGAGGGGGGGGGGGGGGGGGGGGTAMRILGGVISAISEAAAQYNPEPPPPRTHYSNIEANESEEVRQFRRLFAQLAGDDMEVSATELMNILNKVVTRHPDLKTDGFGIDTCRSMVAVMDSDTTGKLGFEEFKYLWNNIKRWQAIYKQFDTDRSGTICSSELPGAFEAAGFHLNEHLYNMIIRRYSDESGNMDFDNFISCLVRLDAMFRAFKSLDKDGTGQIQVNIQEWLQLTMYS
Procedure: The test consists of measuring the activity of the enzyme (enzyme purified from human erythrocytes) which is incubated in a buffer in the presence of a peptide substrate coupled with a fluorochrome (amino-methylcourmarin, AMC) and calcium. The enzyme activated by the calcium, proteolyses the substrate and releases the AMC fragment. The AMC released fluoresces at 460 nm under excitation at 380 nm. The activity of the enzyme is therefore proportional to the quantity of fluorescence i.e. of free AMC fragment. The fluorescence (380/460 nm) is measured using a multi-well fluorimeter (Victor 2, Wallac).
Assay is carried out in 96-well microplates with transparent bottoms and black walls in which 10 μl per well of substance to be tested in DMSO 10%, 45 μl of reaction mixture containing the human calpain I at 2.2 U/ml (Calbiochem, ref: 208713), the Suc Leu Tyr-AMC substrate (Bachem, ref: I-1355) at 1.1 mM in a buffer (Tris-HCl 110 mM; NaCl 110 mM; EDTA 2.2 mM; EGTA 2.2 mM; mercaptoethanol 1.1 mM) are distributed. The reaction is initiated by adding 45 μl of CaCl2 22mM. To determine the background noise, control wells without calcium are added to the plate (10 μL DMSO 10%+45 μL of buffer with the enzyme and the susbtrate +45 μL H2O). In order to determine the total activity of the enzyme control wells containing no product are added to the plate (10 μL DMSO 10%+45 μL of buffer with the enzyme and the substrate +45 μL of CaCl2 22 mM ). Each concentration of the products (0.1 nM to 10 μM) is tested in duplicate. The plates are shaken and incubation takes place for one hour at 25° C. in darkness. The fluorescence is read at 380/460 nm using the Victor.

[2] = test system: rat glial cells C6; assay: Protection from necrosis induced by maitotoxin, C6 (wst-1 viability); type: cell-based
Procedure: Human neuroblastomas SHSY5Y and rat glial cells C6 are seeded at 25 000 cells per well in 96-well plates in DMEM 10% FBS for 24 hours. The L6 rat myoblasts are seeded at 1000 cells per well in DMEM 10% FBS on 96-well microplates coated beforehand with gelatin 0.5% PBS. After culture for 3 days the medium is removed and replaced with a differentiation medium (DMEM+10 μg/ml of insulin+100 μg/ml of transferrin). 50 μl of product A plus 50 μl of solvent or 50 μl of product B are placed in the wells. After incubation for 1 hour at 37° C. under an atmosphere of 5% CO2, 10 μl of maitotoxin is added in order to obtain a final concentration of 0.1 nM to 1 nM (according to the cell type). After incubation for 3 hours at 37° C. under an atmosphere of 5% CO2, the cell viability is determined by adding 10 μl of tetrazolium salts (wst-1, Roche, ref: 1644807). The tetrazolium salts are cleaved into formazan molecules by mitochondrial dehydrogenases. The quantity of formazan formed is directly correlated to the number of metabolically active cells in the culture. Measurement of the absorbance of the formazan is carried out using a multiwell photometer at a wavelength of 420 nm against a reference wavelength of 620 nm.
The theoretical effect was obtained by multiplying the percentage of dead cells in the presence of product A by the percentage of dead cells in the presence of product B (Table 3). The percentage protection against cell death induced by MTX being the percentage of cells kept alive in the presence of the product or products.
In the light of the previous results, the combination of Example 1 with product A and product B at a rate of 100 μM of each of the products is carried out on human neuroblastomas (SHSY5Y; (Table 5A) and on glial cells with 25 μM of product A and 50 μM of product B (C6; Table 5B) on a larger number of cases.

[3] = test system: lipidic peroxidation of rat cerebral cortex homogenate; assay: In vitro lipidic peroxidation (Fenton reaction, MDA) in rat cerebral cortex membranes; type: biochemical; settings: iron/ascorbate, read-out: Inhibition of lipidic peroxidation [IC50 (μM)]
Procedure: The test consists of inducing lipidic peroxidation by Fenton reactions in the presence of iron and ascorbate. The degree of lipidic peroxidation is determined by the concentration of malonaldehyde (MDA). The MDA produced by the lipidic peroxidation of unsaturated fatty acids is a good indicator of lipidic peroxidation (Esterbauer et al, 1990; Meth. Enzymol. 186: 407421). For this colorimetric test, the condensation of a molecule of MDA with two molecules of chromogenic reagent R (N-methyl-2-phenylindole) produces a stable chromophore the maximum absorbance wavelength of which is equal to […].
The membranes are prepared from the cortexes of male Sprague Dawley rats weighing 200 to 250 g. The animals are sacrificed by decapitation and the brains are immediately removed and rinsed in cold Tris HCl 20 mM pH 7.4. The cortexes, after dissection and removal of the white matter, are then ground with the Thomas potter, in Tris HCl buffer 20 mM pH 7.4 at 4° C. The homogenate obtained is centrifuged at low speed in order to eliminate the large debris (515 g for 15 minutes at 4° C.). The supernatant is then distributed into polycarbonate centrifugation tubes and centrifuged at 51500 g for 25 min at 4° C. The membrane pellets are kept at −80° C.
On the day of the experiment, the frozen membranes are resuspended at a concentration of 0.5 equivalent grams of cortex per 5 ml of Tris HCl buffer 20 mM pH 7.4 and homogeneized using a combitips. In 96-well “deep-well” 1 ml polypropylene plates with a conical base, 5 μl per well of the product to be tested or of solvent is mixed with 40 μl of rat cerebral cortex homogenate by centrifugation (800 rpm). The plates are covered with a self-adhesive aluminium sheet and incubated at 37° C. for 15 minutes under agitation. […]
The membranes and the supernatants are separated by filtration under vacuum on a 96-well plate with a multiscreen filtering base NA (Millipore, ref: MANANLY 50). The absorbance of the supernatants recovered in the 96-well plates is read using a photometer.

[4] = test system: calpain activity in rat glial cells (C6); assay: In situ calpain activity in rat glial cells C6 stimulated by maitotoxin; type: cell-based; settings: read-out: Inhibition human calpain I, in situ (C6) [IC50 (nM)]; n = 3; maitotoxin 1 nM; 1 h 30 min
Procedure: Human neuroblastomas SHSY5Y and rat glial cells C6 are seeded at a rate of 50,000 and 25,000 cells respectively per well on 96-well plates in DMEM 10% FBS. The next day, the cells which have adhered are washed 3 times in DMEM medium without serum and 40 mM Hepes. 100 microlitres of product B is placed in the wells. After incubation for 1 hour at 37° C. under an atmosphere of 5% CO2, 10 μl containing the fluorescent substrate of calpain (Suc-Leu-Tyr-AMC) and maitotoxin (Sigma, ref: M-9159), in order to obtain a final concentration in the well of 100 μM and of 1 nM respectively are added.
In order to determine the total activity of the cell enzyme, wells containing no product are added to the plate (100 μL DMSO 100th plus 10 μl of MTX and substrate). The background noise is determined by adding control wells with no MTX. Each concentration of the products (0.3 μM to 200 μM for the SHSY5Y's and 0.01 μM to 100 μM for the C6's) is tested in triplicate. The plates are shaken, the fluorescence is read at 380/460 nm using the Victor at T zero. Incubation takes place for four hours for the SHSY5Y and 1 hour 30 minutes for the C6 cells at 30° C. in darkness.

[5] = single product at 100 μM, n = 1

**Q.** How did the IC50 [1] turn out when `O=C(O)C(S)=Cc1ccc(I)cc1` [EXAMPLE 4 B, 3-(4-iodophenyl)-2-mercapto-2-propenoic acid] was run?
**A.** Its IC50 is 5140 nM.

**Q.** What about the “Protection from necrosis induced by MTX on C6” value (“Protection” below) ([2]; single product at 25 μM) of the same compound?
**A.** Its value is 0.69%.

**Q.** What about the “Protection” value [2, 5] of the same compound?
**A.** Its value is 0.36% and 2.75%.

**Q.** What does the source list for `Oc1ccc(Nc2ccccc2)cc1` [EXAMPLE 5 A, 4-hydroxydiphenylamine]?
**A.** IC50 [3]: 0.093 µM; Protection from necrosis induced by MTX on C6 [2, 5]: 17.90%; Protection from necrosis induced by MTX on C6 ([2]; single product at 100 μM, n = 1, listed as EXAMPLE 6 A): 9.43%

**Q.** Which IC50 [1] does the source give for `CC(C)C[C@H](NC(=O)OCc1ccccc1)C(=O)NC(C=O)Cc1ccccc1` (stereo partly drawn) [EXAMPLE 2 B, benzyl (1S)-1-{[(1-benzyl-2-oxoethyl)amino]carbonyl)-3-methylbutylcarbamate] (Cbz-Leu-[ξF]-aldehyde) here?
**A.** The IC50 was 8 nM.

**Q.** And the IC50 [4]?
**A.** Its IC50 is 2200 ± 290 nM.

**Q.** What about the “Protection” value ([2]; single product at 50 μM, n = 3 for Example 2, else n = 1) of the same compound?
**A.** The value was 12.05 ± 2.82%.

**Q.** And the “Protection” value ([2]; single product at 50 μM, n = 3 for Example 2, else n = 1, listed as Z-Leu-Phe-H)?
**A.** The value was “inactive”.

**Q.** For `CC(=O)N[C@@H](CC(C)C)C(=O)N[C@@H](CC(C)C)C(=O)N[C@H](C=O)CCCNC(=N)N` [LEUPEPTIN, leupeptin], which IC50 [1] is on record?
**A.** Its IC50 is 73 nM.
